In patent publication US20130338178A1, “SIRTUIN MODULATORS AS INHIBITORS OF CYTOMEGALOVIRUS” (THE TRUSTEES OF PRINCETON UNIVERSITY, priority 2011, published 2013):
Read-outs that look alike come from different tables or passages of the source.

Columns and labels:
[1] = mice; cited from earlier work
HCMV pUL99 = experiment: Late viral pUL99 expression and cytopathic effect in HCMV infected MRC5 cells; assay type: cell-based, human cytomegalovirus
[2] = test system: Burkitt lymphoma xenografts; settings: mouse, in vivo; cited from earlier work
Hst2 = Hst2 (Saccharomyces cerevisiae, UniProt P53686); settings: cited from earlier work
Sequence of Hst2 (P53686 whole entry): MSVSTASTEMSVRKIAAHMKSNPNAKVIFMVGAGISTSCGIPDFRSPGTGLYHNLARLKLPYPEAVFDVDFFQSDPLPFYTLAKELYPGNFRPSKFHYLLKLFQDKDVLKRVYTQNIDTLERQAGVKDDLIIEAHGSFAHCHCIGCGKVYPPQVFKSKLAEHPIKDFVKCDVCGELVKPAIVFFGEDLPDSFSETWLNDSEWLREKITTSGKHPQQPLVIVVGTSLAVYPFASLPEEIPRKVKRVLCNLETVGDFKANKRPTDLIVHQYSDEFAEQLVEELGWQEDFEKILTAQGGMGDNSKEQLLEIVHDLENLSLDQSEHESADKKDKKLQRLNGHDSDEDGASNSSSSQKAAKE

HCMV = experiment: Yield of infectious HCMV from drug-treated infected MRC5 fibroblasts; assay type: cell-based, human cytomegalovirus; settings: for reduction of the yield of infectious HCMV by a factor of: MRC5, 10% fetal calf serum, added 4 hours after infection
[3] = test system: Influenza A (WSN/33/A, PR8); assay type: cell-based, influenza A virus
[4] = test system: tumor necrosis factor alpha (TNFα) release; settings: cited from earlier work
SIRT2 [5] = target: T1, SIRT2 (Homo sapiens, UniProt Q8IXJ6); settings: 100 μM; cited from earlier work
T1 sequence (Q8IXJ6 1-389): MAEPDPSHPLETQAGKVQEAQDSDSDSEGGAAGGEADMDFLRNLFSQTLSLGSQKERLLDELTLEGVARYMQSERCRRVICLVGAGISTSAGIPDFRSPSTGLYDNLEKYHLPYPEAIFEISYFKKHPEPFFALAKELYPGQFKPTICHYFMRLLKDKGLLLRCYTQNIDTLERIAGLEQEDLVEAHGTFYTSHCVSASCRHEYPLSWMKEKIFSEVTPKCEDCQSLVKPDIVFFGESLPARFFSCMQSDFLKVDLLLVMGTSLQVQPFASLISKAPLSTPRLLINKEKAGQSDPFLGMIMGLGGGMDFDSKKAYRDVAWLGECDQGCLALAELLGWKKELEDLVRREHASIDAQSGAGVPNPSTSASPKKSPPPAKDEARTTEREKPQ

SIRT1 [6] = target: T2, SIRT1 (Homo sapiens, UniProt Q96EB6); settings: cited from earlier work
T2 sequence (Q96EB6 1-747): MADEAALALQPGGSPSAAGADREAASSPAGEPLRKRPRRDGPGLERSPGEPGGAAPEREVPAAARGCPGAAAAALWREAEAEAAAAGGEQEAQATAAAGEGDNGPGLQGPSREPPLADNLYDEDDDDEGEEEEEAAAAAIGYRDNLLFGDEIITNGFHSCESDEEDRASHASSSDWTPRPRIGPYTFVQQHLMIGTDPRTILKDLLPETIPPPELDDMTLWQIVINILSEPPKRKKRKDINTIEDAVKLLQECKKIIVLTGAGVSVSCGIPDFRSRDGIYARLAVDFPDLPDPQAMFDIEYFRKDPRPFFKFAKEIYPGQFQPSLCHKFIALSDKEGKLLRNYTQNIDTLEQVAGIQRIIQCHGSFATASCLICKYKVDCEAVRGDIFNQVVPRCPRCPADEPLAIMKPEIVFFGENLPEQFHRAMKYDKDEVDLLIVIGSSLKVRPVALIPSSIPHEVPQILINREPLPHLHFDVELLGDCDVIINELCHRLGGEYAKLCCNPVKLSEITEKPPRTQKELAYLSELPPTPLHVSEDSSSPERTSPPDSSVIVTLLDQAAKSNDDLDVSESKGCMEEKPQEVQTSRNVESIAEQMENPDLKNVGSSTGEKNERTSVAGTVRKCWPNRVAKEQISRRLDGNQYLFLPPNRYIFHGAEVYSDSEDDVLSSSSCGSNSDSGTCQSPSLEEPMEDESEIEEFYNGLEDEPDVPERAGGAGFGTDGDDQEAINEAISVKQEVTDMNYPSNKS

SIRT3 = target: T3, SIRT3 (Homo sapiens, UniProt Q9NTG7); settings: cited from earlier work
T3 sequence (Q9NTG7 1-399): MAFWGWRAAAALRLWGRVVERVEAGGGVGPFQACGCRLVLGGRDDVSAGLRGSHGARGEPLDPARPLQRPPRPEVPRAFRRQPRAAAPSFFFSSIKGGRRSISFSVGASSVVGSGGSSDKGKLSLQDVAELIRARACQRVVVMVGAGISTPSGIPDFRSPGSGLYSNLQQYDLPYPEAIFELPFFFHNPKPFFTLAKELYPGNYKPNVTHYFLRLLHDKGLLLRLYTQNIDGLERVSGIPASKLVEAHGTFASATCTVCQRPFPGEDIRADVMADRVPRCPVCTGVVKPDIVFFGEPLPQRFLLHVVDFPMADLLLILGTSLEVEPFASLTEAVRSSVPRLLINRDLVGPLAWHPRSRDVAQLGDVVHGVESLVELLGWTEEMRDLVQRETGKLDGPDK

SIRT2 [7] = target: T1, SIRT2; settings: cited from earlier work
SIRT1 [8] = target: T2, SIRT1; settings: cited from earlier work; remark: listed apart in the source

**Q.** What does the source list for Cambinol?
**A.** tolerability [1]: well-tolerated; pUL99 accumulation (HCMV pUL99; 50 μM, data not shown): substantial block; Burkitt lymphoma xenografts [2]: inhibits; IC50 (Hst2): > 1000 µM; virus yield (HCMV; 50 μM, 96 h after infection, limit of detection): < 10^2 IU/ml; inhibition of influenza A in combination with oseltamivir [3]: cooperated with oseltamivir; production of infectious Influenza A progeny [3]: inhibited

**Q.** With `Nc1c(S(=O)(=O)c2ccccc2)c2nc3ccccc3nc2n1-c1ccc(F)cc1` [CAY10602] as the compound, how does the “suppression of TNFα release, extent relative to resveratrol” value [4] read?
**A.** 10 fold

**Q.** What about the pUL99 expression (HCMV pUL99; 25 μM) of the same compound?
**A.** almost completely inhibited

**Q.** With `Oc1ccc(C=Cc2cc(O)cc(O)c2)cc1` [Resveratrol] as the compound, how does the “cytopathic effect of HCMV” value (HCMV pUL99; HCMV infected MRC5 cells, added 4 hours after infection, data not shown) read?
**A.** inhibited

**Q.** What about the “expression of late viral pUL99” value (HCMV pUL99; dose dependent, data not shown) of the same compound?
**A.** substantially reduced

**Q.** What about the “activation of SIRT2” value (SIRT2 [5]) of the same compound?
**A.** does not activate

**Q.** And the “increase of SIRT1 activity” value (SIRT1 [6]; 46 μM)?
**A.** 1.5 fold

**Q.** And the “increase of SIRT1 activity” value (SIRT1 [6]; 100 μM)?
**A.** 13 fold

**Q.** What about the “EC1.5: The concentration to activate 1.5-fold” value (SIRT1 [6]) of the same compound?
**A.** 46 µM

**Q.** And the “reduction of the yield of infectious HCMV by a factor of” value (HCMV; 50 μM)?
**A.** > 18 fold

**Q.** And the “reduction of the yield of infectious HCMV by a factor of” value (HCMV; 100 μM)?
**A.** > 100 fold

**Q.** Which IC50 (SIRT3) does the source give for `CC(=O)Nc1ccc(NC(=S)NC(=O)c2ccc(C(C)(C)C)cc2)cc1` [Tenovin 1] here?
**A.** 67 µM

**Q.** What about the IC50 (SIRT2 [7]) of the same compound?
**A.** 10 µM

**Q.** What about the IC50 (SIRT1 [8]) of the same compound?
**A.** 21 µM
